Measurements as given in patent publication US12630523B2, “Isoquinoline derivatives for use as antiviral and antitumour agents” (priority 2021, dated 2026).

How the values were obtained:
[1] = Pharmacokinetics of VSP034 and VSP035 after oral administration of a liposomal formulation; type: in vivo, female Sprague-Dawley rats; conditions: for AUC(0-inf) / CL/F / Cmax / MRT inf / Tmax / Vd/F / half-life: female, Sprague-Dawley, rat, in vivo, po, 100 mg/kg; for AUC(0-inf): AUC0-inf; for MRT inf: MRT0-inf; for Vd/F: Vz/F
Procedure: The pharmacokinetic parameters of VSP034 and VSP035 encapsulated as liposomal formulation were assessed after the administration of a single 100 mg/kg dose by oral gavage to 6 female Sprague-Dawley rats weighting 250 grams (+25 g). The animals were randomized into two experimental groups (Groups 1 and 2), each composed of 3 rats. Rats belonging to group 1 were administered with VSP034 and rats belonging to group 2 were administered with VSP035. Blood was collected at baseline and 15 min, 30 min, 1, 2, 4, 6, 8, and 24 hours after the oral gavage. The rats were sacrificed 24 hours after the dosing. Blood was collected at each timepoint from the caudal vein, with the exception of the last collection (24 hours), which was performed by intracardiac puncture at the moment of sacrifice under isoflurane anesthesia. The animals were weighted immediately before the dosing to assess the proper dose and carefully monitored during the experiment. They were kept in standard housing conditions, meeting the legal requirements for the correct housing of rodents for a period not exceeding the maximum experimental endpoints. Ad libitum access to water and food was allowed. […] Humane endpoints have not been reached. The pharmacokinetic analysis was performed using Microsoft Excel plug-in PK Solver. Pharmacokinetic parameters of two compounds are compared with the software GraphPad Prism ver. 8.0 by Student's t test for unpaired data. A p value <0.05 is considered statistically significant.
Analytical method: Compound analysis was performed following the bioanalytical method as in Test 13. In this study, carbamazepine was used as an internal standard.
Pharmacokinetic analysis: A pharmacokinetic analysis of VSP034 and VSP035 was performed using the Excel plug-in 2.0 PK Solver. The results have been fitted according to a non-compartmental modelling following extravascular administration. Concentration-vs-time curves for VSP034 and VSP035.
The main pharmacokinetic parameters (half-life, t1/2; time to maximum plasma concentration, Tmax; maximum plasma concentration, Cmax, AUC Extrapolated to Infinity, AUC0-inf; mean residence time, MRT; Apparent Volume of Distribution During Terminal Phase, Vz/F; and apparent oral clearance, CL/F) were calculated from the coefficients and exponents of the best-fits by using standard formulae.

[2] = test system: CaSki (ATCC CRM-CRL-1550); experiment: Monolayer assay using Sulphorhodamine B (SRB) staining, CaSki; type: cell-based; conditions: Homo sapiens, Ca-Ski, read-out: EC50 mean [nM]
Procedure: Various cell culture cells grown as monolayers are harvested from exponential growing cultures after treatment with various OC compounds at different concentrations. For this depending on the cell line, 10.000 to 30.000 cells were plated in 96-well flat-bottom microtiter plates. After a 24 h recovery period to allow cells to resume exponential growth, supernatants are discarded and 100 μl of culture medium (eight control wells/plate) or culture medium with the test compound are added by a liquid handling robotic system (Microlab® Starlet, Hamilton) and treatment continued for 72 hrs. Compounds are applied at 9 concentrations and eight wells/concentration). At least three independent experiments are performed. For SRB staining, cells are fixed with SRB01 (Tab. 5) for 1 h at 4° C. (final concentration of TCA=10%) washed with a plate washer (Hydroflex, Tecan©) for five times with H2O; and stained with 100 μl of SRB02 at room temperature for 10 min following 4 washes in SRB03 and finally 100 μl of developer solution SRB04 for 5 minutes with shaking. Optical density is assessed using a plate-reader (Sunrise, Tecan©) at 540 nm.
Concentrations required for half maximal response of the compound for cell growth inhibition (EC50) is calculated by non-linear regression (log[conc. of inhibitor] versus response (% T/C)) using the analysis software GraphPad Prism®, Prism 5 for windows, version 5.01 (GraphPad Software Inc., CA).

[3] = test system: patient derived SARS-2 Coronavirus (COVID19); experiment: Inhibition of Sars-CoV2 replication by RNA qPCR analysis in Vero E6 cells; type: cell-based, SARS-CoV-2; conditions: 7.5 μM, supernatants 3 days after infection, n3
Procedure: Vero E6 cells were pre-incubated with the compounds at a concentration of 7.5 μM. The cells were infected with a patient derived SARS-2 Coronavirus (COVID19). Cellular supernatants were collected 3 days after infection and centrifuged at 2000 rpm for 5 min to remove detached cells. Viral RNAs were extracted using a MagNA Pure 24 system (Roche, Germany). SARS-CoV-2 RNA genomes were quantified with the TIB MOLBIOL LightMix Assay SARS-CoV-2 RdRP RTqPCR assay kit with RNA Process Control PCR Kit (Roche). The PCR reaction setup was performed using a BRAND LHS laboratory robot to ensure quality. The amplification was performed with a LightCycler 480 II (Roche). Method used in FIG. 10.
SARV-CoV-2 antiviral activity by of VSP034 and VSP035 (n3; number of repeat of the assay at each condition). The results are shown in for DMSO (1), 7.5 μM VSP034 (2) and 7.5 μM VSP035 (3), y axis logarithmic scale. […] (FIG. 9)

[4] = test system: SARS-CoV-2 isolate BetaCov/Belgium/GHB-03021/2020; experiment: microbe, parasite or virus in culture; type: cell-based; conditions: 1.25 μM (non-toxic compound concentration), n4; for inhibition at 1.25 µM: Severe acute respiratory syndrome coronavirus 2
[5] = test system: cell signaling molecules (4E-BP1, p70 S6 kinase, Akt, PTPN14, p53, PD-L1); experiment: Western blot of cell signaling molecules in CaSki cells; conditions: CaSki, 6 h; order 10 μM VSP035, Torin 1, Torin 2, rapamycin, 5 μM VSP035, CGP 57380
[6] = test system: p38, JNK1, ERK1/2, PKC, or Src-like kinases; conditions: cited from earlier work
Plk3 = Plk3 (Homo sapiens, UniProt Q9H4B4); conditions: cited from earlier work
Plk3, sequence (Q9H4B4 whole entry, species assumed): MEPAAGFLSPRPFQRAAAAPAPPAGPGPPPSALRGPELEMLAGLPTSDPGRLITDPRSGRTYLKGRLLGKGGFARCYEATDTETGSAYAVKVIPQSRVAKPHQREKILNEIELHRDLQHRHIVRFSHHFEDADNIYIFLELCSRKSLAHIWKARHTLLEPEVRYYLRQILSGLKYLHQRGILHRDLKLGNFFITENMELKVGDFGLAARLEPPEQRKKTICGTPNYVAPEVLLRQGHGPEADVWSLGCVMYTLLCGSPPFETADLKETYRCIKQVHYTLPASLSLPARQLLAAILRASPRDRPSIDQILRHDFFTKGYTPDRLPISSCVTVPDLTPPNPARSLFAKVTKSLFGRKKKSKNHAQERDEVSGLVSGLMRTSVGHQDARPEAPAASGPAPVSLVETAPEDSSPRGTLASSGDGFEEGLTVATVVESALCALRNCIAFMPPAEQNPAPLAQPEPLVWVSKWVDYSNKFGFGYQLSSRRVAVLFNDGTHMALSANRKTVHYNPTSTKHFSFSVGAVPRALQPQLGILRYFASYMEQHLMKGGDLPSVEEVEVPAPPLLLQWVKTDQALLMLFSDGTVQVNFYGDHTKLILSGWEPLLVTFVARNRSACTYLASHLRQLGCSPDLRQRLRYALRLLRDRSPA

CN1CCC(CN2C(=O)c3ccccc3[C@@H](C(=O)Nc3cccc(N4CCN(C)CC4)c3)[C@@H]2c2ccc(C(F)(F)F)cc2)CC1 [VSP034, (3R,4R)-N-[3-(4-methylpiperazin-1-yl)phenyl]-2-[(1-methylpiperidin-4-yl)methyl]-1-oxo-3-[4-(trifluoromethyl)phenyl]-1,2,3,4-tetrahydroisoquinoline-4-carboxamide]
AUC(0-inf) ([1]; Mean): 529 ng·h/mL | AUC(0-inf) ([1]; Median): 613 ng·h/mL | CL/F ([1]; Mean): 3.42 mL/min/kg | CL/F ([1]; Median): 2.72 mL/min/kg | Cmax ([1]; Mean): 89 ng/mL | Cmax ([1]; Median): 87.9 ng/mL | MRT inf ([1]; Mean): 6.72 h | MRT inf ([1]; Median): 6.77 h | Tmax ([1]; Mean): 1.17 h | Tmax ([1]; Median): 1 h | Vd/F ([1]; Mean): 1.29 L/kg | Vd/F ([1]; Median): 0.994 L/kg | half-life ([1]; t1/2, Mean): 260 min | half-life ([1]; t1/2, Median): 253 min | condition of the rats after administration of the liposomal formulation ([1]; single 100 mg/kg oral gavage, observed 24 hours): did not show any sign of suffering or abnormal behavior | EC50 [2]: 3590 nM | reduction of virus load as determined by the PCR assay [3]: one order of magnitude | inhibition at 1.25 µM [4]: 45.2%

Nc1ncnc2n[nH]c(Nc3ccc(F)cc3)c12 [CGP57380, reference compound]
Phosphorylation of 4E-BP1 on Ser65 and the p70S6 kinase on Thr389 [5]: inhibited or strongly reduced | inhibitory activity against p38, JNK1, ERK1/2, PKC, or Src-like kinases [6]: μM, but has no inhibitory activity against | % Inhibition [4]: 17.71%

COc1cc(OC)c(/C=C/S(=O)(=O)Cc2ccc(OC)c(NCC(=O)O)c2)c(OC)c1 [ON-01910.Na, reference compound]
inhibition at 1.25 µM [4]: 51.4% | activity to Plk3 (Plk3): against Plk2 and no activity to Plk3.
